Assay results as given in US4826982A, “Quinolonecarboxylic acid derivatives” (Kyorin Pharmaceutical Co., Ltd., priority 1985, dated 1989).
Values after ≈ are worked out from the molar mass of the structure shown. Where two headings read alike, the source gives them in different places.

Key:
[1] = system: Pst. micros UPI 5464-1; assay: Antibacterial spectrum, MIC; settings: Parvimonas micra, UPI54641
[2] = system: Yersinia enterocolitica IID 981; assay: microbe, parasite or virus in culture; format: cell-based; settings: IID981
[3] = system: Veillonella parvula KYA 10790; assay: Antibacterial spectrum, MIC; settings: KYA10790
[4] = system: Propionibacterium acens 11828; assay: Antibacterial spectrum, MIC; format: cell-based
[5] = system: P. aeruginosa IFO 12689; assay: microbe, parasite or virus in culture; settings: Pseudomonas aeruginosa, IFO12689
[6] = system: Clostridium perfringens KYA 13123; assay: microbe, parasite or virus in culture; settings: KYA13123
[7] = system: C. ramosum; assay: Antibacterial spectrum, MIC; format: cell-based; settings: Thomasclavelia ramosa
[8] = system: Eubacterium lentum GAI 5242; assay: microbe, parasite or virus in culture; settings: Eggerthella lenta, GAI5242
[9] = system: Klebsiella pneumoniae KY(GN)6445; assay: Antibacterial spectrum, MIC; format: cell-based; settings: 10^6 cells/ml, Gram -, standard strain
Description: (§1) In vitro antibacterial activity (standard strains)
(§2) Organism (10^6 cells/ml)

[10] = system: Proteus vulgaris IFO 3167; assay: Antibacterial spectrum, MIC; format: cell-based; settings: IFO3167, 10^6 cells/ml, Gram -, standard strain
Description: as §1, §2

[11] = system: Salmonella enteritidis IID 604; assay: Antibacterial spectrum, MIC; format: cell-based; settings: Salmonella enterica; 10^6 cells/ml; Gram -; standard strain
Description: as §1, §2

[12] = system: K. pneumoniae 1-220S; assay: Antibacterial spectrum, MIC; format: cell-based; settings: Klebsiella pneumoniae, 1220S; 10^6 cells/ml; Gram -; standard strain
Description: as §1, §2

[13] = system: Citrobacter freundii IID 976; assay: Antibacterial spectrum, MIC; format: cell-based; settings: IID976, 10^6 cells/ml, Gram -, standard strain
Description: as §1, §2

[14] = system: S. aureus IID 670 (Terajima); assay: Antibacterial spectrum, MIC; format: cell-based; settings: Staphylococcus aureus, IID670; 10^6 cells/ml; Gram +; standard strain
Description: as §1, §2

[15] = system: Enterobacter cloacae IID 977; assay: Antibacterial spectrum, MIC; format: cell-based; settings: IID977, 10^6 cells/ml, Gram -, standard strain
Description: as §1, §2

[16] = system: Escherichia coli NIHJ JC-2; assay: Antibacterial spectrum, MIC; format: cell-based; settings: NIHJJC2, 10^6 cells/ml, Gram -, standard strain
Description: as §1, §2

[17] = system: B. distasonis 8503; assay: Antibacterial spectrum, MIC; format: cell-based; settings: Parabacteroides distasonis, 10^6 cells/ml, Gram -, standard strain
Description: as §1, §2

[18] = system: E. coli ATCC l0536; assay: Antibacterial spectrum, MIC; format: cell-based; settings: Escherichia coli, ATCCL0536
Description: as §1, §2

[19] = system: Streptococcus pyogenes (S-8); assay: Antibacterial spectrum, MIC; format: cell-based; settings: 10^6 cells/ml, Gram +, standard strain
Description: as §1, §2

[20] = system: B. fragilis 25285; assay: Antibacterial spectrum, MIC; format: cell-based; settings: Bacteroides fragilis, 10^6 cells/ml, Gram -, standard strain
Description: as §1, §2

[21] = system: Serratia marcescens IID 618; assay: Antibacterial spectrum, MIC; format: cell-based; settings: IID618, 10^6 cells/ml, Gram -, standard strain
Description: as §1, §2

[22] = system: S. epidermidis IID 866; assay: Antibacterial spectrum, MIC; format: cell-based; settings: Staphylococcus epidermidis, IID866; 10^6 cells/ml; Gram +; standard strain
Description: as §1, §2

[23] = system: P. mirabilis IID 994; assay: Antibacterial spectrum, MIC; format: cell-based; settings: Proteus mirabilis, IID994; 10^6 cells/ml; Gram -; standard strain
Description: as §1, §2

[24] = system: Alcaligenes faecalis 0114002; assay: Antibacterial spectrum, MIC; format: cell-based; settings: 10^6 cells/ml, Gram -, standard strain
Description: as §1, §2

[25] = system: Staphylococcus aureus 209 P; assay: Antibacterial spectrum, MIC; format: cell-based; settings: 10^6 cells/ml, Gram +, standard strain
Description: as §1, §2

[26] = system: S. pneumoniae IID 552; assay: Antibacterial spectrum, MIC; format: cell-based; settings: Streptococcus pneumoniae, IID552; 10^6 cells/ml; Gram +; standard strain
Description: as §1, §2

[27] = system: B. fragilis 0558; assay: Antibacterial spectrum, MIC; format: cell-based; settings: Bacteroides fragilis, 10^6 cells/ml, Gram -, standard strain
Description: as §1, §2

[28] = system: Acinetobacter anitratus IID 876; assay: Antibacterial spectrum, MIC; format: cell-based; settings: Acinetobacter calcoaceticus, IID876; 10^6 cells/ml; Gram -; standard strain
Description: as §1, §2

[29] = system: Shigella sonnei IID 969; assay: Antibacterial spectrum, MIC; format: cell-based; settings: IID969, 10^6 cells/ml, Gram -, standard strain
Description: as §1, §2

[30] = system: Fusobacterium necrophorum S-45; assay: Antibacterial spectrum, MIC; format: cell-based; settings: S45, 10^6 cells/ml, Gram -, standard strain
Description: as §1, §2

[31] = system: E. faecalis IID 682; assay: Antibacterial spectrum, MIC; format: cell-based; settings: Enterococcus faecalis, IID682; 10^6 cells/ml; Gram +; standard strain
Description: as §1, §2

[32] = system: Bacteroides fragilis GM 7000; assay: Antibacterial spectrum, MIC; settings: GM7000
[33] = system: B. thetaiotaomicron (0661); assay: Antibacterial spectrum, MIC; format: cell-based; settings: Bacteroides thetaiotaomicron
[34] = system: S. pyogenes IID 692; assay: microbe, parasite or virus in culture; settings: Streptococcus pyogenes, IID692
[35] = system: Peptococcus magnus KY 017; assay: microbe, parasite or virus in culture; settings: Finegoldia magna, KY017
[36] = system: Morganella morganii IID 602; assay: Antibacterial spectrum, MIC; format: cell-based; settings: IID602
[37] = system: F. varium KYA 8501; assay: Antibacterial spectrum, MIC; format: cell-based; settings: Fusobacterium varium, KYA8501
[38] = system: Pseudomonas aeruginosa V-1; assay: Antibacterial spectrum, MIC; settings: V1
[39] = system: Peptostreptococcus anaerobius KYA 27337; assay: Antibacterial spectrum, MIC; format: cell-based
[40] = system: Bacillus subtilis PCI 219; assay: Antibacterial spectrum, MIC by method recommended by Japan Society of Chemotherapy; format: cell-based; settings: PCI219, 10^6 cells/ml, Gram +, standard strain
Description: as §1, §2

[41] = 10^6 cells/ml, Gram +, standard strain, read-out: MIC

Row | SMILES | MIC [1] [µg/mL] | MIC [2] [µg/mL] | MIC [3] [µg/mL] | MIC [5] [µg/mL] | MIC [6] [µg/mL] | MIC [8] [µg/mL] | MIC [9] [µg/mL] | MIC [10] [µg/mL] | MIC [11] [µg/mL] | MIC [12] [µg/mL] | MIC [13] [µg/mL] | MIC [14] [µg/mL] | MIC [15] [µg/mL] | MIC [16] [µg/mL] | MIC [17] [µg/mL] | MIC [18] [µg/mL] | MIC [19] [µg/mL] | MIC [20] [µg/mL] | MIC [21] [µg/mL] | MIC [22] [µg/mL] | further results
1 | O=C(O)c1cn(C2CC2)c2c(Br)c(N3CCNCC3)c(F)cc2c1=O [Exp. 17, 8-Bromo-1-cyclopropyl-6-fluoro-1,4-dihydro-4-oxo-7-(1-piperazinyl)-3-quinolinecarboxylic acid] | 0.39 (≈ 0.951 µM) | 0.05 (≈ 0.122 µM) | 0.39 (≈ 0.951 µM) | 0.78 (≈ 1.9 µM) | 0.78 (≈ 1.9 µM) | 0.39 (≈ 0.951 µM) | 0.025 (≈ 0.0609 µM) | 0.025 (≈ 0.0609 µM) | 0.025 (≈ 0.0609 µM) | 0.05 (≈ 0.122 µM) | 0.025 (≈ 0.0609 µM) | 0.2 (≈ 0.488 µM) | 0.05 (≈ 0.122 µM) | 0.0125 (≈ 0.0305 µM) | 1.56 (≈ 3.8 µM) | 0.025 (≈ 0.0609 µM) | 0.39 (≈ 0.951 µM) | 0.78 (≈ 1.9 µM) | 0.05 (≈ 0.122 µM) | 0.2 (≈ 0.488 µM) | MIC [4]: 6.25 µg/mL (≈ 15.2 µM); MIC [7]: 6.25 µg/mL (≈ 15.2 µM); MIC [23]: 0.025 µg/mL (≈ 0.0609 µM); MIC [24]: 0.2 µg/mL (≈ 0.488 µM); MIC [25]: 0.1 µg/mL (≈ 0.244 µM); MIC [26]: 0.78 µg/mL (≈ 1.9 µM); MIC [27]: 0.78 µg/mL (≈ 1.9 µM); MIC [28]: 0.1 µg/mL (≈ 0.244 µM); MIC [29]: 0.025 µg/mL (≈ 0.0609 µM); MIC [30]: 0.78 µg/mL (≈ 1.9 µM); MIC [31]: 0.39 µg/mL (≈ 0.951 µM); MIC [32]: 0.78 µg/mL (≈ 1.9 µM); MIC [33]: 1.56 µg/mL (≈ 3.8 µM); MIC [34]: 0.78 µg/mL (≈ 1.9 µM); MIC [35]: 0.39 µg/mL (≈ 0.951 µM); MIC [36]: 0.05 µg/mL (≈ 0.122 µM); MIC [37]: 3.13 µg/mL (≈ 7.63 µM); MIC [38]: 0.39 µg/mL (≈ 0.951 µM); MIC ([39]; KYA27337): 1.56 µg/mL (≈ 3.8 µM); MIC [40]: 0.05 µg/mL (≈ 0.122 µM)
2 | CC1CN(c2c(F)cc3c(=O)c(C(=O)O)cn(C4CC4)c3c2Br)CCN1.Cl (centres unmarked) [Exp. 18, 8-Bromo-1-cyclopropyl-6-fluoro-1,4-dihydro-7-(3-methyl-1-piperazinyl)-4-oxo-3-quinolinecarboxylic acid hydrochloride] | 0.39 | 0.1 | 0.39 | 3.13 | 0.78 | 0.39 | 0.05 | 0.025 | 0.05 | 0.1 | 0.05 | 0.2 | 0.1 | 0.0125 | 1.56 | 0.025 | 0.78 | 0.39 | 0.1 | 0.2 | MIC [4, 41]: 6.25 µg/mL; MIC [7, 41]: 6.25 µg/mL; MIC [23]: 0.025 µg/mL; MIC [24]: 0.39 µg/mL; MIC [25]: 0.1 µg/mL; MIC [26]: 0.78 µg/mL; MIC [27]: 0.39 µg/mL; MIC [28]: 0.05 µg/mL; MIC [29]: 0.025 µg/mL; MIC [30]: 0.78 µg/mL; MIC [31]: 0.78 µg/mL; MIC [32]: 0.78 µg/mL; MIC ([33]; 10^6 cells/ml, Gram -, standard strain, read-out: MIC): 1.56 µg/mL; MIC [34]: 0.78 µg/mL; MIC [35]: 0.39 µg/mL; MIC [36]: 0.1 µg/mL; MIC [37]: 3.13 µg/mL; MIC [38]: 0.39 µg/mL; MIC ([39]; KYA27337, 10^6 cells/ml, Gram +, standard strain, read-out: MIC): 1.56 µg/mL; MIC [40]: 0.05 µg/mL
